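Dose response: 5 concentrations. Exposure: 48 h. Format: 96-well plates. Endpoint: linear interpolation; highest concentration if not reached. Here, GI50 denotes the concentration required for 50% inhibition of growth. TGI is the concentration that stops growth completely.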
How the values were obtained:
Test in all cases: NCI anticancer screen, dose series, 48 h
NCI-H522 lung = system: NCI-H522 lung
UACC-257 melanoma = system: UACC-257 melanoma
HL-60(TB) leukemia = system: HL-60(TB) leukemia
SR leukemia = system: SR leukemia
MALME-3M melanoma = system: MALME-3M melanoma
NCI-H460 lung = system: NCI-H460 lung
HCT-116 colon = system: HCT-116 colon
DU-145 prostate = system: DU-145 prostate
BT-549 breast = system: BT-549 breast
SF-295 CNS = system: SF-295 CNS
A498 renal = system: A498 renal
ACHN renal = system: ACHN renal
SK-MEL-2 melanoma = system: SK-MEL-2 melanoma
SF-268 CNS = system: SF-268 CNS
NCI-H23 lung = system: NCI-H23 lung
786-0 renal = system: 786-0 renal
NCI-H226 lung = system: NCI-H226 lung
MOLT-4 leukemia = system: MOLT-4 leukemia
SNB-75 CNS = system: SNB-75 CNS
EKVX NSCLC = system: EKVX NSCLC
COLO 205 colon = system: COLO 205 colon
OVCAR-4 ovarian = system: OVCAR-4 ovarian
SK-MEL-28 melanoma = system: SK-MEL-28 melanoma
MCF7 breast = system: MCF7 breast
HOP-92 NSCLC = system: HOP-92 NSCLC
HCT-15 colon = system: HCT-15 colon
HT29 colon = system: HT29 colon

CC(=O)C1=C(C)N(C)C2(O)C=CC(=O)C3=C(O)c4ccccc4C(=O)C312 (stereo not drawn)
TGI (NCI-H522 lung): > 100 µM
GI50 (UACC-257 melanoma): 5.73 µM
TGI (UACC-257 melanoma): > 100 µM
GI50 (HL-60(TB) leukemia): > 100 µM
TGI (HL-60(TB) leukemia): > 100 µM
GI50 (SR leukemia): > 100 µM
TGI (SR leukemia): > 100 µM
GI50 (MALME-3M melanoma): 1.51 µM
TGI (MALME-3M melanoma): 4.01 µM
GI50 (NCI-H460 lung): 10.6 µM
TGI (NCI-H460 lung): 42 µM
GI50 (HCT-116 colon): 2.77 µM
TGI (HCT-116 colon): 7.09 µM
GI50 (DU-145 prostate): 5.27 µM
TGI (DU-145 prostate): 21.8 µM
GI50 (BT-549 breast): 13.6 µM
TGI (BT-549 breast): 27.9 µM
GI50 (SF-295 CNS): 5.03 µM
TGI (SF-295 CNS): 19.6 µM
GI50 (A498 renal): 0.0524 µM
TGI (A498 renal): 15.2 µM
GI50 (ACHN renal): 10.8 µM
TGI (ACHN renal): 28.8 µM
GI50 (SK-MEL-2 melanoma): 30.6 µM
TGI (SK-MEL-2 melanoma): > 100 µM
GI50 (SF-268 CNS): 9.29 µM
TGI (SF-268 CNS): 23.6 µM
GI50 (NCI-H23 lung): 5.21 µM
TGI (NCI-H23 lung): 46 µM
GI50 (786-0 renal): 2.59 µM
TGI (786-0 renal): 7.36 µM
GI50 (NCI-H226 lung): 16 µM
TGI (NCI-H226 lung): 31.9 µM
GI50 (MOLT-4 leukemia): 3.53 µM
TGI (MOLT-4 leukemia): > 100 µM
GI50 (SNB-75 CNS): 19.9 µM
TGI (SNB-75 CNS): 43.8 µM
GI50 (EKVX NSCLC): 15.3 µM
TGI (EKVX NSCLC): 33.4 µM
GI50 (COLO 205 colon): 13.8 µM
TGI (COLO 205 colon): 38 µM
GI50 (OVCAR-4 ovarian): 17.1 µM
TGI (OVCAR-4 ovarian): 34.2 µM
GI50 (SK-MEL-28 melanoma): 19.4 µM
TGI (SK-MEL-28 melanoma): 47.3 µM
GI50 (MCF7 breast): 12.2 µM
TGI (MCF7 breast): 36.1 µM
GI50 (HOP-92 NSCLC): 2.61 µM
TGI (HOP-92 NSCLC): 8.48 µM
GI50 (HCT-15 colon): 5.41 µM
TGI (HCT-15 colon): 21.7 µM
GI50 (HT29 colon): 24.1 µM
TGI (HT29 colon): > 100 µM
